Where two headings read alike, the source gives them in different places. Marks after values point to notes of the source that are not given here.
Experiments:
[1] = test system: P388 (murine leukaemia); assay: Anti-tumour activity with respect to P388 leukaemia in mice; format: in vivo; details: P388 i.p. in B6D2F1 mice, products i.v. on day 1
Protocol: Line P388 (murine leukaemia) was supplied by the National Cancer Institute (Frederick, USA). The tumour cells (10^6 cells) were inoculated on day 0 into the peritoneal cavity of female B6D2F1 mice (Iffa Credo, France). Six mice weighing from 18 to 20 g were used in each test group. The products were administered by the intravenous route on day 1. The anti-tumour activity is expressed as % T/C: […]

[2] = test system: C38 adenocarcinoma of the colon; assay: Anti-tumour activity with respect to C38 adenocarcinoma of the colon in mice; format: in vivo; details: for anti-tumour activity (% T/C): C38 s.c. in B6D2F1 mice, tumour volume; for T/C (tumor growth), C38: Table 3
Protocol: Tumour fragments of C38 adenocarcinoma of the colon weighing approximately 30 mg were implanted under the skin of B6D2F1 mice (Iffa Credo, France) on day 0.
After growth of the tumour, the mice were divided into control (18 animals) and treated (6 or 7 animals) groups, which were homogeneous with respect to tumour size. The products were administered by the i.v. route once per week for 3 weeks (on days 10, 17 and 24), at their Maximum Tolerated Dose (MTD), MTD/2 and MTD/4. The tumours were measured twice a week and the tumour volumes were calculated according to the following formula: volume (mm^3)=length (mm)×breadth (mm^2)/2. The anti-tumour activity is expressed as % T/C:
[formula] V0 and Vt being the initial volume of the tumour and its volume at measurement time t, respectively.
The optimum dose is the dose giving the lowest T/C value without toxicity (early death or weight loss greater than 20%).
The procedure used in the anti-tumour activity with respect to C38 adenocarcinoma is the same as the procedure described in the present application at Example 28.

[3] = test system: Human KB-3-1 (bucal epidermoïde carcinoma) cell; assay: In vitro cytotoxicity on human KB-3-1 cells (procedure of Example 27)
Protocol: (§2) Murine leukaemia L1210 was used in vitro. The cells are cultured in RPMI 1640 complete culture medium containing 10% foetal calf serum, 2 mM glutamine, 50 units/ml of penicillin, 50 μg/ml of streptomycin and 10 mM Hepes, pH: 7.4. The cells are distributed on microplates and exposed to the cytotoxic compounds for 4 doubling periods, or 48 hours. The number of viable cells is then quantified by means of a colorimetric assay, the Microculture Tetrazolium Assay (J. Carmichael et al., Cancer Res., 47, 936–942, (1987)). The results are expressed as IC50, the concentration of cytotoxic agent which inhibits the proliferation of the treated cells by 50%.

[4] = test system: Murine leukaemia L1210; assay: In vitro cytotoxicity on murine leukaemia L1210 (Microculture Tetrazolium Assay)
Protocol: as §2

[5] = test system: human A549 non-small cell lung carcinoma; assay: Anti-tumour activity on A549 lung carcinoma in nude mice; format: in vivo; details: A549 in pleural space of nude mice, median survival time
Protocol: (§1) The anti-tumour activity of the compounds against the human A549 non-small cell lung carcinoma was evaluated essentially as described (Kraus-Berthier, L., Jan, M., Guilbaud, N., Naze, M., Pierré, A., and Atassi, G. Histology and sensitivity to anticancer drugs of two human non-small cell lung carcinomas implanted in the pleural cavity of nude mice. Clinical Cancer Res., 6, 297–304, 2000). Briefly, 10^6 A549 cells were implanted through the chest wall into the left pleural space of nude mice in a volume of 100 μl. Compounds were administered i.v. at three doses on days 14 and 24 after tumor graft. Animal mortality was checked daily and the anti-tumour activity was expressed as T/C %=(median survival time of treated group/median survival time of control group)×100. Results given in table 3 are the highest T/C values obtained at the maximum non-toxic dose, i.e. the optimal dose.

[6] = test system: human IGROV1 ovarian carcinoma; assay: Anti-tumour activity on IGROV1 ovarian carcinoma in nude mice; format: in vivo; details: IGROV1 i.p. in nude mice, 12.5 mg/kg i.v. days 4 and 14, optimal dose; median survival time
Protocol: as §1
The anti-tumour activity of the compounds against the human IGROV1 ovarian carcinoma was evaluated essentially as described (Burbridge, M. F., Kraus-Berthier, L., Naze, M., Pierré, A., Atassi, G. and Guilbaud, N. Biological and pharmacological characterization of three models of human ovarian carcinoma established in nude mice: use of the CA125 tumor marker to predict antitumor activity. Int. J. Oncol., 15, 1155–1162, 1999). […] The anti-tumour activity was evaluated as described above for A549 lung carcinoma.

[7] = test system: Murine leukaemia L1210
Protocol: as §2

[8] = test system: Human KB-3-1 (bucal epidermoïde carcinoma) cell
Protocol: as §2

[9] = Homo sapiens, KB 3-1, read-out: IC50 (μM), Cytotoxicity on Human KB-3-1 (bucal epidermoïde carcinoma) cell
[10] = Mus musculus, L1210, read-out: IC50 (μM), Cytotoxicity on Murine L 1210 cells

COc1cc2c(c3c1c(=O)c1ccccc1n3C)C=CC(C)(C)O2 [acronycine, reference compound]
T/C [1]: only marginally active | anti-tumour activity (% T/C) ([2]; i.v. days 10, 17 and 24, optimum dose of 100 mg/kg): 27%

COc1cc2c(c3c1c(=O)c1cc4ccccc4cc1n3C)[C@H](OC(=O)N(C)C)[C@H](OC(=O)N(C)C)C(C)(C)O2 [Example 11, (1S,2S)-1-{[(Dimethylamino)carbonyl]oxy}-6-methoxy-3,3,14-trimethyl-7-oxo-2,3,7,14-tetrahydro-1H-benzo[b]pyrano[3,2-h]acridin-2-yl dimethylcarbamate]
T/C (tumor growth), C38 ([2]; C38, dose 25 mg/kg i.v.): 41%^a | anti-tumour activity (% T/C) ([2]; i.v. days 10, 17 and 24, optimum dose of 25 mg/kg): 41% | IC50 [3, 9]: 0.4 µM | IC50 ([4]; Mus musculus, L1210, 48 h): 0.78 µM | IC50 [4, 10]: 0.8 µM

(±)-cis-1,2-Dipentenoyloxy-6-methoxy-3,3,14-trimethyl-2,3,7,14-tetrahydro-1H-benzo[b]pyrano[3,2-h]acridin-7-one [Example 7]
T/C (tumor growth), C38 ([2]; C38, dose 25 mg/kg i.v.): 12%^a | anti-tumour activity (% T/C) ([2]; i.v. days 10, 17 and 24, optimum dose of 12.5 mg/kg): 30% | T/C (survival), A549 ([5]; 12.5 mg/kg i.v. days 14 and 24, optimal dose): 218%^b | T/C (survival), IGROV1 [6]: 148%^b | IC50 ([3]; read-out: IC50 (μM), Cytotoxicity on Human KB-3-1 (bucal epidermoïde carcinoma) cell, KB-3-1 cells, procedure of Example 27, Table 2): 0.14 µM | IC50 ([4]; L1210 cells, exposure 4 doubling periods or 48 hours): 0.52 µM | IC50 ([4]; read-out: IC50 (μM), Cytotoxicity on Murine L 1210 cells, L1210 cells, procedure of Example 27, Table 1): 0.5 µM

Cn1c2cc3ccccc3cc2c(=O)c2c(OCCO)cc3c(c21)C=CC(C)(C)O3 [Example 1, 6(2-Hydroxyethoxy)-3,3,14-trimethyl-3,14-dihydro-7H-benzo[b]-pyrano[3,2-h]acridin-7-one]
IC50 [3, 9]: 0.5 µM

(±)-cis-1-Hydroxy-6-methoxy-2-pentenoyloxy-3,3,14-trimethyl-2,3,7,14-tetrahydro-1H-benzo[b]pyrano[3,2-h]acridin-7-one [Example 8]
T/C (tumor growth), C38 ([2]; C38, dose 50 mg/kg i.v.): 15%^a | T/C (survival), A549 ([5]; 25 mg/kg i.v. days 14 and 24, optimal dose): 340%^b | IC50 [7]: 900 nM | IC50 [8]: 100 nM

CCN(CC)C(=O)O[C@@H]1c2c(cc(OC)c3c(=O)c4cc5ccccc5cc4n(C)c23)OC(C)(C)[C@@H]1OC(=O)N(CC)CC (racemic) [Example 23, (±)-cis-1-{[(Diethylamino)carbonyl]oxy}-6-methoxy-3,3,14-trimethyl-7-oxo-2,3,7,14-tetrahydro-1H-benzo[b]pyrano[3,2-h]acridin-2-yl diethylcarbamate]
IC50 [4, 10]: 0.9 µM

Reference: US7056929B2, “Benzo[b]pyrano[3,2-h]acridin-7-one compounds” (Les Laboratoires Servier, priority 2001, dated 2006)
